Source: US6713455B2, “6-O-carbamate-11,12-lacto-ketolide antimicrobials” (Ortho-McNeil Pharmaceutical, Inc., priority 2001, dated 2004)
Values after ≈ are worked out from the molar mass of the structure shown.

Legend:
Assay in all cases: MIC, microdilution broth method (NCCLS)
Assay type in all cases: cell-based
Conditions in all cases: 35° C., 16-20 hours
[1] = tested on: H. influenzae ATCC49247
Description: (§1) Minimal inhibitory concentration (MIC) has been an indicator of in vitro antibacterial activity widely used in the art. The in vitro antimicrobial activity of the compounds was determined by the microdilution broth method following the test method from the National Committee for Clinical Laboratory Standards (NCCLS). This method is described in the NCCLS Document M7-A4, Vol.17, No.2, “Methods for Dilution Antimicrobial Susceptibility Test for Bacteria that Grow Aerobically—Fourth Edition”, which is incorporated herein by reference.
(§2) In this method two-fold serial dilutions of drug in cation adjusted Mueller-Hinton broth are added to wells in microdilution trays. The test organisms are prepared by adjusting the turbidity of actively growing broth cultures so that the final concentration of test organism after it is added to the wells is approximately 5×10^4 CFU/well.
(§3) Following inoculation of the microdilution trays, the trays are incubated at 35° C. for 16-20 hours and then read. […] The amount of growth in the wells containing the test compound is compared with the amount of growth in the growth-control wells (no test compound) used in each tray. As set forth in Table 1, compounds of the present invention were tested against a variety of Gram positive and Gram negative pathogenic bacteria resulting in a range of activities depending on the organism tested.

[2] = tested on: E. faecalis ATCC29212
Description: as §1, §2, §3

[3] = tested on: S. pneumoniae ATCC49619
Description: as §1, §2, §3

[4] = tested on: E. coli OC2605
Description: as §1, §2, §3

[5] = tested on: S. aureus ATCC29213
Description: as §1, §2, §3

| Compound | MIC (μg/mL) E [1] [µg/mL] | MIC (μg/mL) C [2] [µg/mL] | MIC (μg/mL) D [3] [µg/mL] | MIC (μg/mL) A [4] [µg/mL] | MIC (μg/mL) B [5] [µg/mL] | MIC ([1]; Haemophilus influenzae) [µg/mL] | MIC ([2]; Enterococcus faecalis) [µg/mL] | MIC ([3]; Streptococcus pneumoniae) [µg/mL] | MIC ([4]; Escherichia coli) [µg/mL] | MIC ([5]; Staphylococcus aureus) [µg/mL] |
| --- | --- | --- | --- | --- | --- | --- | --- | --- | --- | --- |
| CCC1OC(=O)C(C)C(=O)C(C)C(OC2OC(C)CC(N(C)C)C2O)C(C)(OC(=O)NCC=Cc2cccnc2)CC(C)C(=O)C(C)C2CC(=O)OC12C (centres unmarked) [Compound 34] | 2 (≈ 2.64 µM) | 0.12 (≈ 0.158 µM) | 0.06 (≈ 0.0792 µM) | >16 | 0.5 (≈ 0.66 µM) |  |  |  |  |  |
| CCC1OC(=O)C(C)C(=O)C(C)C(OC2OC(C)CC(N(C)C)C2O)C(C)(OC(=O)NCC=Cc2ccc(-c3ccccc3)nc2)CC(C)C(=O)C(C)C2CC(=O)OC12C (centres unmarked) [Compound 35] | 4 (≈ 4.8 µM) | 0.25 (≈ 0.3 µM) | 0.12 (≈ 0.144 µM) | >16 | 0.5 (≈ 0.6 µM) |  |  |  |  |  |
| CCC1OC(=O)C(C)C(=O)C(C)C(OC2OC(C)CC(N(C)C)C2O)C(C)(OC(=O)NCc2ccc(C=Cc3ccc4ccccc4n3)cc2)CC(C)C(=O)C(C)C2CC(=O)OC12C (centres unmarked) [Compound 36] | 16 (≈ 18.1 µM) | 1 (≈ 1.13 µM) | 0.25 (≈ 0.283 µM) | >16 | 4 (≈ 4.52 µM) |  |  |  |  |  |
| CC[C@H]1OC(=O)[C@H](C)C(=O)[C@H](C)[C@@H](OC2O[C@H](C)C[C@H](N(C)C)[C@H]2O)[C@](C)(OC(=O)NC/C=C/c2cn(-c3ncccn3)cn2)C[C@@H](C)C(=O)C(C)C2CC(=O)O[C@@]21C (some centres unmarked) [Compound 37] |  |  |  |  |  | 4 (≈ 4.85 µM) | 0.12 (≈ 0.145 µM) | 0.03 (≈ 0.0364 µM) | > 16 | 0.5 (≈ 0.606 µM) |
| CCC1OC(=O)C(C)C(=O)C(C)C(OC2OC(C)CC(N(C)C)C2O)C(C)(OC(=O)NCC=Cc2ccc3nccnc3c2)CC(C)C(=O)C(C)C2CC(=O)OC12C (centres unmarked) [Compound 38] | 2 (≈ 2.47 µM) | 0.12 (≈ 0.148 µM) | 0.03 (≈ 0.0371 µM) | >16 | 0.5 (≈ 0.618 µM) |  |  |  |  |  |
| CCC1OC(=O)C(C)C(=O)C(C)C(OC2OC(C)CC(N(C)C)C2O)C(C)(OC(=O)NCC=Cc2ccnc3ccccc23)CC(C)C(=O)C(C)C2CC(=O)OC12C (centres unmarked) [Compound 39] | 4 (≈ 4.95 µM) | 0.12 (≈ 0.149 µM) | 0.03 (≈ 0.0371 µM) | 16 (≈ 19.8 µM) | 0.5 (≈ 0.619 µM) |  |  |  |  |  |
| CCC1OC(=O)C(C)C(=O)C(C)C(OC2OC(C)CC(N(C)C)C2O)C(C)(OC(=O)NCC=Cc2cncc(-c3ncccn3)c2)CC(C)C(=O)C(C)C2CC(=O)OC12C (centres unmarked) [Compound 40] | 1 (≈ 1.2 µM) | 0.12 (≈ 0.144 µM) | 0.03 (≈ 0.0359 µM) | 16 (≈ 19.1 µM) | 0.25 (≈ 0.299 µM) |  |  |  |  |  |
